From ChEMBL document CHEMBL3826945, “Discovery of novel dihydrobenzofuran cyclopropane carboxylic acid based calcium sensing receptor antagonists for the treatment of osteoporosis” (Bioorg Med Chem Lett, 2016)
The source made the active and inactive calls. No cut-off for these calls is given here.

Key:
[1] = molecular target: T1, Extracellular calcium-sensing receptor (Homo sapiens, UniProt P41180); test: Antagonist activity at calcium sensing receptor (unknown origin) by cell based FLIPR assay; format: functional
T1 sequence (P41180 whole entry): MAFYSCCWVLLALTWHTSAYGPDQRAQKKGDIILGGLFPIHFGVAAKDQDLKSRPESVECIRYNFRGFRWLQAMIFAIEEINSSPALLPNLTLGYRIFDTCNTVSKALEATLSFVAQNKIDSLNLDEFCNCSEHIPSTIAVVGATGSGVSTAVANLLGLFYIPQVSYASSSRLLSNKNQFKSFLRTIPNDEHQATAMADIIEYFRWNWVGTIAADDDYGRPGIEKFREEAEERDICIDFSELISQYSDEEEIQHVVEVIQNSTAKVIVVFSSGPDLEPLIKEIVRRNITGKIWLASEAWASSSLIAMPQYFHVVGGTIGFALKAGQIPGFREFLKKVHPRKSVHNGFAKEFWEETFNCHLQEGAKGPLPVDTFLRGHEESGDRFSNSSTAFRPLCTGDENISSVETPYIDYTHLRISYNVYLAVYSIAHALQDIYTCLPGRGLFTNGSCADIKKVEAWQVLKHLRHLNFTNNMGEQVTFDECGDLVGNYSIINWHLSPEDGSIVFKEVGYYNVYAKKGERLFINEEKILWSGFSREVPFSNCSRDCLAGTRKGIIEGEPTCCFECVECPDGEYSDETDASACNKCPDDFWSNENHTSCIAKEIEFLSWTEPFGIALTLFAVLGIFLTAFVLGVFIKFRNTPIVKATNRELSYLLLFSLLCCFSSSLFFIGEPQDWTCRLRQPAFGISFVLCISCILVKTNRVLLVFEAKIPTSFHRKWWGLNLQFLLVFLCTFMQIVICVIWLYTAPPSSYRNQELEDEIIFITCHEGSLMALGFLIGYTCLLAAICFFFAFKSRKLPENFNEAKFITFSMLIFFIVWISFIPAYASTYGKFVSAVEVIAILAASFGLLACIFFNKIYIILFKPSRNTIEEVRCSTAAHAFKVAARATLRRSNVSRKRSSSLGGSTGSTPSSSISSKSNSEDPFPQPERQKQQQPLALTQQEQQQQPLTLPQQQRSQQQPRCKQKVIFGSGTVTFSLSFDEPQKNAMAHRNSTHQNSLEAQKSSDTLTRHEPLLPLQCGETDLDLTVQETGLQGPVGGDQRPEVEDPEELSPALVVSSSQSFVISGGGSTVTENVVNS

[2] = Clearance in Sprague-Dawley rat plasma at 2 mg/kg, iv or 5 mg/kg, po; format: ADME, organism-based
Rattus norvegicus [3] = test: Stimulation of parathyroid hormone release in overnight fasted Sprague-Dawley rat serum at 30 mg/kg, po measured after 2 hrs by ELISA; format: functional, organism-based
[4] = Oral bioavailability in Sprague-Dawley rat at 5 mg/kg; format: ADME, organism-based; settings: in vivo
Rattus norvegicus [5] = test: Stimulation of parathyroid hormone release in po dosed overnight fasted Sprague-Dawley rat serum after 7 days by ELISA; format: functional, organism-based
Rattus norvegicus [6] = test: Stimulation of parathyroid hormone release in overnight fasted Sprague-Dawley rat serum at 30 mg/kg, po measured within 1 hour by ELISA relative to vehicle treated control; format: functional
[7] = Half life in Sprague-Dawley rat at 2 mg/kg, iv or 5 mg/kg, po; format: ADME, organism-based; settings: in vivo
[8] = Tmax in Sprague-Dawley rat at 2 mg/kg, iv or 5 mg/kg, po; format: ADME, organism-based; settings: in vivo
[9] = Cmax in Sprague-Dawley rat at 2 mg/kg, iv or 5 mg/kg, po; format: ADME, organism-based; settings: in vivo

Compound | IC50 [1] [µM] | other results
CSc1ccc(CC(C)(C)NC[C@@H](O)CO[C@H](C)c2ccc(C)c3c2[C@@H]2[C@H](O3)[C@H]2C(=O)O)cc1 | 0.0393 | –
CSc1ccc(CC(C)(C)NC[C@@H](O)CO[C@H](C)c2ccc(C)c3c2[C@@H]2[C@H](O3)[C@H]2C(=O)O)cc1F | 0.0276 | clearance [2]: 2.41 L/h/kg; Activity (Rattus norvegicus [3]): inactive; bioavailability [4]: 6.9%; Activity (Rattus norvegicus [5]): Dose-dependent effect; fold change (FC) (Rattus norvegicus [6]): 3; half-life [7]: 1.9 h; Tmax [8]: < 1 h; Cmax [9]: 0.17 µM
Cc1ccc([C@@H](C)OC[C@H](O)CNC(C)(C)Cc2ccc3c(c2)CCS3(=O)=O)c2c1O[C@@H]1[C@@H](C(=O)O)[C@H]21 | > 10 | –
Cc1ccc([C@@H](C)OC[C@H](O)CNC(C)(C)CCCc2ccccc2)c2c1O[C@@H]1[C@@H](C(=O)O)[C@H]21 | 0.0284 | –
Cc1ccc([C@@H](C)OC[C@H](O)CNC(C)(C)Cc2ccc3sccc3c2)c2c1O[C@@H]1[C@@H](C(=O)O)[C@H]21 | 0.00962 | –
Cc1ccc(C(C)OC[C@H](O)CNC(C)(C)Cc2ccc(Cl)c(F)c2)c2c1OC1C(C(=O)O)C21 (stereo partly specified) | 0.203 | –
COc1ccc(CC(C)(C)NC[C@@H](O)CO[C@H](C)c2ccc(C)c3c2[C@@H]2[C@H](O3)[C@H]2C(=O)O)c(Cl)c1 | 0.0196 | clearance [2]: 2.46 L/h/kg; bioavailability [4]: 16.5%; half-life [7]: 2.9 h; Cmax [9]: 0.3 µM
Cc1ccc(CC(C)(C)NC[C@@H](O)CO[C@H](C)c2ccc(C)c3c2[C@@H]2[C@H](O3)[C@H]2C(=O)O)cc1C | 0.0177 | –
Cc1ccc([C@@H](C)OC[C@H](O)CNC(C)(C)CCSc2ccccc2)c2c1O[C@@H]1[C@@H](C(=O)O)[C@H]21 | 0.0508 | –
Cc1ccc([C@@H](C)OC[C@H](O)CNC(C)(C)Cc2ccc3ccccc3c2)c2c1O[C@@H]1[C@@H](C(=O)O)[C@H]21 | 0.00745 | –
Cc1ccc(C(C)OC[C@H](O)CNC(C)(C)CC2Cc3ccccc3C2)c2c1OC1C(C(=O)O)C21 (stereo partly specified) | 0.117 | –
Cc1ccc([C@@H](C)OC[C@H](O)CNC(C)(C)Cc2ccc3ccccc3c2)c2c1O[C@H]1[C@H](C(=O)O)[C@@H]21 | 0.0216 | –
Cc1ccc([C@@H](C)OC[C@H](O)CNC(C)(C)Cc2ccc3ncccc3c2)c2c1O[C@@H]1[C@@H](C(=O)O)[C@H]21 | 0.457 | –
Cc1ccc(C(C)OC[C@H](O)CNC(C)(C)Cc2ccc3ccccc3c2)c2c1OC1C(C(=O)O)C21 (stereo partly specified) | 0.0643 | –
